Data published in US12415794B2 (Edgewise Therapeutics, Inc., priority 2018, dated 2025).

What was measured:
[1] = biological target: skeletal myofibrils (myosin ATPase); experiment: Skeletal Myofibril ATPase Assay; format: biochemical; details: Table 4C
How it was run: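 Rates of NADH loss (A340, kinetic read over 45 min) report ADP generation by myofibrillar myosin, coupled through pyruvate kinase and lactate dehydrogenase; pCa buffer at pH 7.0. IC50 fitted by 4-parameter logistic after normalizing to 1% DMSO controls; cardiac myofibrils served for selectivity.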

[2] = biological target: T1, cardiac myofibrils (myosin ATPase); experiment: Cardiac Myofibril ATPase Assay (counter screen); format: biochemical; details: myofibrils 1.0 mg/mL, KCl omitted, Table 5C
T1 construct: frozen myofibril pellets obtained from cardiac tissue; from tissue
T1 sequence (P12883 whole entry): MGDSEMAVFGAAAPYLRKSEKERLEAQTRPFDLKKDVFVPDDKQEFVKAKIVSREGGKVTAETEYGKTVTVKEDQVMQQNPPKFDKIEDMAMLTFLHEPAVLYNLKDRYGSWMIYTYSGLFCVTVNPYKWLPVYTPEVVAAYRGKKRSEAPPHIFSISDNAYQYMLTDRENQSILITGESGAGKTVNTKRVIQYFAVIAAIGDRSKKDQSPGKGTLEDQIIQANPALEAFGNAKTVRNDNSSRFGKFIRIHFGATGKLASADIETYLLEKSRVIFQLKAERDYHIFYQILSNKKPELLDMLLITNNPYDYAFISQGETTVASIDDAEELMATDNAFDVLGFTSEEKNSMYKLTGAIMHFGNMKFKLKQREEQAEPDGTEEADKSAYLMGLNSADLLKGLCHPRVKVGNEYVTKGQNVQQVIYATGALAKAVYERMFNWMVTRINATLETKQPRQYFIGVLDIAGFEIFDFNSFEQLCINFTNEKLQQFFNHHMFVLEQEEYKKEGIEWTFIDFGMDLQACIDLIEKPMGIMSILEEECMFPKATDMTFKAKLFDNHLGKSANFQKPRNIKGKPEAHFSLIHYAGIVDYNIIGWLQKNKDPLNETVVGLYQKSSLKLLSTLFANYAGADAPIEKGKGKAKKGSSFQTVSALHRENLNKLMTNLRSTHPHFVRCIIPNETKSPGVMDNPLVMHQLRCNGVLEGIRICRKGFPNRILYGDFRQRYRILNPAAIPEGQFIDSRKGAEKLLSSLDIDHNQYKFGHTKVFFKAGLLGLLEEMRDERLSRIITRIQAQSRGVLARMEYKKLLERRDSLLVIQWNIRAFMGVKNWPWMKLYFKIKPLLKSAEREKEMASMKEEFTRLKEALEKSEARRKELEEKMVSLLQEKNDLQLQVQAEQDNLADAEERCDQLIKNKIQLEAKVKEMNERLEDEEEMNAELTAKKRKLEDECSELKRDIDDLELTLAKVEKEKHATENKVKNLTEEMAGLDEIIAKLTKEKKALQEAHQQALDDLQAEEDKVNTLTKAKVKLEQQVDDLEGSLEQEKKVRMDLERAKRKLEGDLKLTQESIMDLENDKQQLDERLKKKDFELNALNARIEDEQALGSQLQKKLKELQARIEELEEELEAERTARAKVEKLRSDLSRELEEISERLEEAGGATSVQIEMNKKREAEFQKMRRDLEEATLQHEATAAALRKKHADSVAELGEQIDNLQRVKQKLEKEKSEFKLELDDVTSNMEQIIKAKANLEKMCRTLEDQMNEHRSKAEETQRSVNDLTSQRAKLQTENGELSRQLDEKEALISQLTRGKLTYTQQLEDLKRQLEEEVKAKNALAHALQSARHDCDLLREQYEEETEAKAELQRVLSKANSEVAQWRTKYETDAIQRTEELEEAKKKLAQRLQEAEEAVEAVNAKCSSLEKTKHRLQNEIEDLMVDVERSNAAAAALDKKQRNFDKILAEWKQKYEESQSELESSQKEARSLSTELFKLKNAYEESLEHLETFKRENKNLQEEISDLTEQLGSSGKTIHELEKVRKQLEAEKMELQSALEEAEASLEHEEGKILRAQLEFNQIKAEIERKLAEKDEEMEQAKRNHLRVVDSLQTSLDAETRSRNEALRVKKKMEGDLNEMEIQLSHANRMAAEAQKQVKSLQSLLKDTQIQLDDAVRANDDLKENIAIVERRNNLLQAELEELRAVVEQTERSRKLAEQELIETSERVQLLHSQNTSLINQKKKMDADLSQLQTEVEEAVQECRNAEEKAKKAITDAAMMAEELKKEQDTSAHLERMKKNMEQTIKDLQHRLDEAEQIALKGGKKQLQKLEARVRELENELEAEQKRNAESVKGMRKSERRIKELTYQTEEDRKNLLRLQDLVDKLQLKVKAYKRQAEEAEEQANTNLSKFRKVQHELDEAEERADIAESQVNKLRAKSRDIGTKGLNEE
T1 sequence (P08590 whole entry partner): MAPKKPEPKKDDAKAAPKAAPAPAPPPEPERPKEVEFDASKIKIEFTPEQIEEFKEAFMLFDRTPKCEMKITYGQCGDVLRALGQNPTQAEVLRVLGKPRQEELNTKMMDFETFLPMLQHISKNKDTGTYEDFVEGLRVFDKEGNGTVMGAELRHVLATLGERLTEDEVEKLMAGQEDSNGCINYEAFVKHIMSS
T1 sequence (P10916 whole entry partner): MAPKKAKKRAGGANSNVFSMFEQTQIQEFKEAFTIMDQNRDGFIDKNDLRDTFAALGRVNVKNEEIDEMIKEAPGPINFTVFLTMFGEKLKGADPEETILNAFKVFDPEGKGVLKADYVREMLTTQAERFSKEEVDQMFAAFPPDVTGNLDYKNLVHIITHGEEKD
How it was run: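 Myosin ATPase rate followed via NADH disappearance at 340 nm, coupled through pyruvate kinase and lactate dehydrogenase, using cardiac myofibril pellets (final 1.0 mg/mL) without KCl. IC50 values reflect rate reduction compared with vehicle-treated wells.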

IC50 [1] [µM] | IC50 [2] [µM] | SMILES
< 10 | 10 to 100 | CC(C)c1cccc(NC(=O)Cn2nc(-c3ccc4c(c3)OCCCO4)ccc2=O)c1 [IIIb-5, 2-(3-(3,4-dihydro-2H-benzo[b][1,4]dioxepin-7-yl)-6-oxopyridazin-1(6H)-yl)-N-(3-isopropylphenyl) acetamide]
< 10 | > 100 | COc1ccc(-c2ccc(=O)n(CC(=O)NC3Cc4ccccc4C3)n2)cc1 [IIIb-8, N-(2,3-dihydro-1H-inden-2-yl)-2-(3-(4-methoxyphenyl)-6-oxopyridazin-1(6H)-yl)acetamide]
< 10 | > 100 | COc1ccc(-c2ccc(=O)n(CC(=O)NCCc3ccccc3)n2)c(F)c1 [IIIb-9, 2-(3-(2-fluoro-4-methoxyphenyl)-6-oxopyridazin-1(6H)-yl)-N-phenethylacetamide]
< 10 | > 100 | COc1ccc(-c2ccc(=O)n(CC(=O)Nc3ccc(Cl)cc3Cl)n2)cc1 [IIIb-11, N-(2,4-dichlorophenyl)-2-(3-(4-methoxyphenyl)-6-oxopyridazin-1(6H)-yl)acetamide]
< 10 | > 100 | COc1ccc(-c2ccc(=O)n(CC(=O)NCCC3=CCCCC3)n2)cc1 [IIIb-14, N-(2-(cyclohex-1-en-1-yl)ethyl)-2-(3-(4-methoxyphenyl)-6-oxopyridazin-1(6H)-yl)acetamide]
10 to 100 | > 100 | COc1ccc(-c2ccc(=O)n(CC(=O)NC(C)C)n2)cc1 [IIIb-18, N-isopropyl-2-(3-(4-methoxyphenyl)-6-oxopyridazin-1(6H)-yl)acetamide]
10 to 100 | > 100 | COc1ccc(-c2ccc(=O)n(CC(=O)NC(C)C)n2)c(F)c1 [IIIb-19, 2-(3-(2-fluoro-4-methoxyphenyl)-6-oxopyridazin-1(6H)-yl)-N-isopropylacetamide]
10 to 100 | > 100 | COc1ccc(-c2ccc(=O)n(CC(=O)NCc3ccccc3OC)n2)cc1 [IIIb-21, N-(2-methoxybenzyl)-2-(3-(4-methoxyphenyl)-6-oxopyridazin-1(6H)-yl)acetamide]
10 to 100 | > 100 | COc1ccc(-c2ccc(=O)n(CC(=O)NC3CCCC3)n2)cc1 [IIIb-23, N-cyclopentyl-2-(3-(4-methoxyphenyl)-6-oxopyridazin-1(6H)-yl)acetamide]
10 to 100 | > 100 | COc1ccc(-c2ccc(=O)n(CC(=O)Nc3ncccc3C)n2)cc1 [IIIb-27, 2-(3-(4-methoxyphenyl)-6-oxopyridazin-1(6H)-yl)-N-(3-methylpyridin-2-yl)acetamide]
10 to 100 | > 100 | COc1ccc(-c2ccc(=O)n(CC(=O)Nc3ccc4c(c3)OCO4)n2)cc1 [IIIb-28, N-(benzo[d][1,3]dioxol-5-yl)-2-(3-(4-methoxyphenyl)-6-oxopyridazin-1(6H)-yl)acetamide]
10 to 100 | > 100 | COc1ccc(-c2ccc(=O)n(CC(=O)NCC(C)C)n2)cc1 [IIIb-29, N-isobutyl-2-(3-(4-methoxyphenyl)-6-oxopyridazin-1(6H)-yl)acetamide]
10 to 100 | 10 to 100 | COc1ccc(-c2ccc(=O)n(CC(=O)NC(C)CCc3ccccc3)n2)cc1 (centres unmarked) [IIIb-30, 2-(3-(4-methoxyphenyl)-6-oxopyridazin-1(6H)-yl)-N-(4-phenylbutan-2-yl)acetamide]
10 to 100 | > 100 | COc1ccc(-c2ccc(=O)n(CC(=O)NCc3cccc(F)c3)n2)cc1 [IIIb-32, N-(3-fluorobenzyl)-2-(3-(4-methoxyphenyl)-6-oxopyridazin-1(6H)-yl)acetamide]
10 to 100 | > 100 | COc1ccc(-c2ccc(=O)n(CC(=O)Nc3ccc(Cl)cc3Cl)n2)c(F)c1 [IIIb-35, N-(2,4-dichlorophenyl)-2-(3-(2-fluoro-4-methoxyphenyl)-6-oxopyridazin-1(6H)-yl)acetamide]
10 to 100 | > 100 | COc1ccc(-c2ccc(=O)n(CC(=O)NC(C)CCc3ccccc3)n2)c(F)c1 (centres unmarked) [IIIb-36, 2-(3-(2-fluoro-4-methoxyphenyl)-6-oxopyridazin-1(6H)-yl)-N-(4-phenylbutan-2-yl)acetamide]
> 100 | > 100 | COc1ccc(-c2ccc(=O)n(CC(=O)NCc3ccccc3F)n2)cc1 [IIIb-38, N-(2-fluorobenzyl)-2-(3-(4-methoxyphenyl)-6-oxopyridazin-1(6H)-yl)acetamide]
> 100 | > 100 | COc1ccc(-c2ccc(=O)n(CC(=O)NC[C@@H]3CC4C=CC3C4)n2)cc1 (stereo partly drawn) [IIIb-39, N-(((2R)-bicyclo[2.2.1]hept-5-en-2-yl)methyl)-2-(3-(4-methoxyphenyl)-6-oxopyridazin-1(6H)-yl)acetamide]
> 100 | > 100 | COc1ccc(-c2ccc(=O)n(CC(=O)NC3CCCCC3)n2)cc1 [IIIb-41, N-cyclohexyl-2-(3-(4-methoxyphenyl)-6-oxopyridazin-1(6H)-yl)acetamide]
> 100 | > 100 | CCOc1ccc(-c2ccc(=O)n(CCNC(=O)CC3CCCC3)n2)cc1 [IIIb-43, 2-cyclopentyl-N-(2-(3-(4-ethoxyphenyl)-6-oxopyridazin-1(6H)-yl)ethyl)acetamide]

Further lines, the molecule ahead of its results:

SMILES | IC50 [1] [µM] | IC50 [2] [µM]
O=C(Cn1nc(-c2ccc3c(c2)OCCO3)ccc1=O)Nc1ccccc1F [IIIb-6, 2-(3-(2,3-dihydrobenzo[b][1,4]dioxin-6-yl)-6-oxopyridazin-1(6H)-yl)-N-(2-fluorophenyl)acetamide] | < 10 | 10 to 100
COc1ccc(-c2ccc(=O)n(CC(=O)NCCC3=CCCCC3)n2)c(F)c1 [IIIb-7, N-(2-(cyclohex-1-en-1-yl)ethyl)-2-(3-(2-fluoro-4-methoxyphenyl)-6-oxopyridazin-1(6H)-yl)acetamide] | < 10 | > 100
COc1ccc(-c2ccc(=O)n(CC(=O)Nc3cc(Cl)ccc3Cl)n2)cc1 [IIIb-10, N-(2,5-dichlorophenyl)-2-(3-(4-methoxyphenyl)-6-oxopyridazin-1(6H)-yl)acetamide] | < 10 | > 100
COc1ccc(-c2ccc(=O)n(CC(=O)Nc3cc(Cl)ccc3Cl)n2)c(F)c1 [IIIb-13, N-(2,5-dichlorophenyl)-2-(3-(2-fluoro-4-methoxyphenyl)-6-oxopyridazin-1(6H)-yl)acetamide] | < 10 | > 100
COc1ccc(-c2ccc(=O)n(CC(=O)Nc3ccc4c(c3)OCCO4)n2)c(F)c1 [IIIb-15, N-(2,3-dihydrobenzo[b][1,4]dioxin-6-yl)-2-(3-(2-fluoro-4-methoxyphenyl)-6-oxopyridazin-1(6H)-yl)acetamide] | < 10 | > 100
COc1ccc(-c2ccc(=O)n(CC(=O)Nc3ccc4c(c3)OCCO4)n2)cc1 [IIIb-16, N-(2,3-dihydrobenzo[b][1,4]dioxin-6-yl)-2-(3-(4-methoxyphenyl)-6-oxopyridazin-1(6H)-yl)acetamide] | < 10 | > 100
O=C(Cn1nc(-c2ccc3c(c2)OCCO3)ccc1=O)Nc1ccccc1F [IIIb-17, 2-(3-(2,3-dihydrobenzo[b][1,4]dioxin-6-yl)-6-oxopyridazin-1(6H)-yl)-N-(2-fluorophenyl)acetamide] | < 10 | > 100
COc1ccc(-c2ccc(=O)n(CC(=O)NCc3ccccc3)n2)cc1 [IIIb-20, N-benzyl-2-(3-(4-methoxyphenyl)-6-oxopyridazin-1(6H)-yl)acetamide] | 10 to 100 | > 100
COc1ccc(-c2ccc(=O)n(CC(=O)NC3CC3)n2)cc1 [IIIb-22, N-cyclopropyl-2-(3-(4-methoxyphenyl)-6-oxopyridazin-1(6H)-yl)acetamide] | 10 to 100 | > 100
O=C(Cn1nc(-c2ccc3c(c2)OCCCO3)ccc1=O)NC1CCCCCC1 [IIIb-24, N-cycloheptyl-2-(3-(3,4-dihydro-2H-benzo[b][1,4]dioxepin-7-yl)-6-oxopyridazin-1(6H)-yl)acetamide] | 10 to 100 | > 100
COc1ccc(-c2ccc(=O)n(CC(=O)Nc3cc(OC)ccc3OC)n2)cc1 [IIIb-25, N-(2,5-dimethoxyphenyl)-2-(3-(4-methoxyphenyl)-6-oxopyridazin-1(6H)-yl)acetamide] | 10 to 100 | > 100
C[C@@H](NC(=O)Cn1nc(-c2ccc3c(c2)OCCCO3)ccc1=O)c1ccc(F)cc1 [IIIb-26, (R)-2-(3-(3,4-dihydro-2H-benzo[b][1,4]dioxepin-7-yl)-6-oxopyridazin-1(6H)-yl)-N-(1-(4-fluorophenyl)ethyl)acetamide] | 10 to 100 | > 100
COc1ccc(-c2ccc(=O)n(CC(=O)NCc3ccc(Cl)cc3)n2)cc1 [IIIb-31, N-(4-chlorobenzyl)-2-(3-(4-methoxyphenyl)-6-oxopyridazin-1(6H)-yl)acetamide] | 10 to 100 | > 100
COc1ccc(-c2ccc(=O)n(CC(=O)Nc3ccc4c(c3)OCO4)n2)c(F)c1 [IIIb-33, N-(benzo[d][1,3]dioxol-5-yl)-2-(3-(2-fluoro-4-methoxyphenyl)-6-oxopyridazin-1(6H)-yl)acetamide] | 10 to 100 | > 100
COc1ccc(CNC(=O)Cn2nc(-c3ccc(OC)cc3)ccc2=O)cc1 [IIIb-34, N-(4-methoxybenzyl)-2-(3-(4-methoxyphenyl)-6-oxopyridazin-1(6H)-yl)acetamide] | 10 to 100 | > 100
COc1ccc(-c2ccc(=O)n(CC(=O)NCc3ccco3)n2)cc1 [IIIb-37, N-(furan-2-ylmethyl)-2-(3-(4-methoxyphenyl)-6-oxopyridazin-1(6H)-yl)acetamide] | 10 to 100 | > 100
COc1ccc(-c2ccc(=O)n(CC(=O)NCc3ccccc3Cl)n2)cc1OC [IIIb-40, N-(2-chlorobenzyl)-2-(3-(3,4-dimethoxyphenyl)-6-oxopyridazin-1(6H)-yl)acetamide] | > 100 | > 100
